Measurements as given in US10835500B2, “Medicament for accelerated wound healing” (Symrise AG, priority 2014, dated 2020).

Target: T1, OR2AT4 (human olfactory receptor, endogenously expressed in HaCaT cells) (Homo sapiens, UniProt A6NND4)
T1 construct: OR2AT4, endogenous, HaCaT cells, calcium; endogenous in cells; host or cells: HaCaT cells
T1 sequence (A6NND4 1-320): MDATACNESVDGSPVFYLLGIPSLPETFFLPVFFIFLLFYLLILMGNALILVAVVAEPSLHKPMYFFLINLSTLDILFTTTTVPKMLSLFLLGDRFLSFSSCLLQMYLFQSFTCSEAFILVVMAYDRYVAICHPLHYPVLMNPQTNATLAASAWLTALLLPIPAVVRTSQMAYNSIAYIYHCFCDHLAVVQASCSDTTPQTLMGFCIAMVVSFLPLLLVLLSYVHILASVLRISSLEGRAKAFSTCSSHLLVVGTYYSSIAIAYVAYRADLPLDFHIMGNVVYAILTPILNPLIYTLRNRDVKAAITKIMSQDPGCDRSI
Experiment: Calcium imaging, dose-dependent activation of HaCaT cells by Sandalore, fourth application (FIG. 9D)
Type: cell-based
Conditions: HaCaT keratinocytes, endogenous OR2AT4, intracellular calcium signal amplitude, 0.0125-10 mM
Source text: A method established at the Department of Cell Physiology of Ruhr University Bochum for deorphanization studies is calcium imaging, in which activation of an OR by an odorant is visualized by a change in the intracellular calcium concentration of transfected cells using a fluorescent dye [cf. Wetzel et al. in: J. Neurosci. 19, pp. 7426-7433 (1999); Spehr et al. in: Science 299, pp. 2054-2058 (2003); Neuhaus et al. in: J. Biol. Chem. 284, pp. 16218-16225 (2009)]. In this method, the Hana3A cells are briefly (20 s) stimulated with an odorant and selected for odorant screenings of high concentrations (up to 1 mM) in order to confirm activation of ORs weakly expressed in Hana3A cells.
For detection of OR2AT4 at the transcript level, RNA of various skin cell types and skin biopsy specimens was isolated, and RT-PCR was carried out. Transcripts of OR2AT4 were detected in human primary keratinocytes of various differentiation stages, HaCaT cells, and human skin biopsy specimens (full thickness skin) (FIG. 6). […] In contrast, no expression of the receptor was detected in adipocytes or fibroblasts (FIG. 6, center). […]
Effect of the OR2AT4 ligand Sandalore® on intracellular calcium concentration of cultivated keratinocytes. […] Right: Quantitative evaluation of calcium signals in 4-time application of Sandalore® (500 μM). […]

CC1=CCC(CCC(C)C(C)O)C1(C)C (stereo not shown) [Sandalore]
EC50: 110 µM
